US10016515B2, “DMA, a bis-benzimidazole, confers radioprotection to the intestine via Akt/NFκB dual pathway activation” (Jawaharlal Nehru University, priority 2016, dated 2018)
Values joined by “and” are separate entries in the source; they are usually repeats but may differ in a detail not shown here. Equal entries are not always repeated.

Legend:
A549 cells = assay: Clonogenic survival, DMF; assay type: cell-based, human; conditions: A549, 50 μM DMA 2 h before radiation
Experimental: (§1) Exponentially growing U87, HEK293, MRC5 and A549 cells were treated with 50 μM DMA for 2 h and irradiated with 0, 1, 2, 5, 8 and 10 Gy of radiation dose as indicated at RT and trypsinized immediately at 37° C. Cells were seeded into 60 mm dishes in triplicate at various cell densities aiming approximately 100 colonies/dish. Percentage radioprotection was calculated by following formula % of Protection in radiation treated cells=(SFDMA+radiaion)−(SFRadiaion)/SFControl×100 Where SF is survival fraction in respective conditions. Dose modification factor (DMF) was calculated as ratio of 50% survival in DMA+radiation to 50% survival in radiation only.

HEK293 cells [1] = assay: Clonogenic survival, DMF; assay type: cell-based, human; conditions: HEK293, 50 μM DMA 2 h before radiation
Experimental: as §1

MRC5 cells = assay: Clonogenic survival, DMF; assay type: cell-based, human; conditions: MRC5, 50 μM DMA 2 h before radiation
Experimental: as §1

U87 cells = assay: Clonogenic survival, DMF; assay type: cell-based, human; conditions: U87, 50 μM DMA 2 h before radiation
Experimental: as §1

[2] = system: Balb/c mice spleen and small intestine; assay: BrdU and IL6 immunohistochemistry; assay type: in vivo, mouse
Experimental: Spleen cell survival was determined 3 days after irradiation by 5-bromo-2′-deoxyuridine (BrdU, i.p., 100 mg/kg) to each mouse 2 h before euthanasia. Similarly small intestine was checked for IL6 expression. BrdU and IL6 immunohistochemistry (IHC) were performed as per standard protocol against BrdU and IL6. 3,3,-diaminobenzidine (DAB) was used to detect antigen-antibody binding. Counterstaining was done with hematoxylin, and after dehydration, slides were mounted with glycerogelatin.

[3] = system: Balb/c mice intestine tissue; assay: Gene expression at mRNA level by RT-PCR; assay type: in vivo, mouse
Experimental: The cDNA generated from total RNA was amplified using 1 μl of the reaction products in 10 μl with respective primers for 45 cycles following standard RT-PCR cycle by SYBR green dye. Transcript levels were calculated according to the 2^−ΔΔCt method, normalized to the expression of GAPDH, and expressed as fold change compared with control.

[4] = system: Akt/NFκB pathway in Balb/c mice intestine tissue; assay: Immunoblot analysis and Akt kinase assay in intestine tissue; assay type: in vivo, mouse
Experimental: HEK293, MRC5 and A549 cells were treated as indicated earlier. The cell pellet was resuspended in RIPA buffer and allowed to swell on ice for 30 min. Balb/c intestine tissue and tumor tissues were homogenized in RIPA buffer. Protein concentration was determined using Bradford's Assay (Bangalore Genei). Western blot was performed using standard protocols with primary antibodies against Akt, pAkt (Ser-473), […], mTOR, p70, Bad, PTEN, IKKα/β, p IKKα/β, p53, Bcl2, GAPDH, and NFκB (p65) (Cell Signalling) and horseradish peroxidase-conjugated mouse or rabbit secondary antibody (Abcam). Signals were detected using enhanced chemiluminescence (ECL system, Pierce) on X-ray film.
Akt kinase activity was determined using Akt Kinase Assay Kit (Nonradioactive) (Cell Signaling Technology, Cat. #9840) following the manufacturer's instructions.

[5] = system: Akt/NFκB pathway in melanoma tissue of mice; assay: Immunoblot analysis in tumor tissue; assay type: in vivo, mouse
Experimental: EAT and B16F10 melanoma cell line were harvested and 10×10^6 and 0.8×10^6 cells respectively were injected subcutaneously in the Balb/c mice (n=24) on the right thigh. When tumors reached 0.5 cm^3 in volume, animals were randomized and divided into 4 different groups. The first test group was treated with 50 mg/kg, i.v. DMA, second test group subjected to 8 Gy TBI. Third group received 50 mg/kg, i.v. DMA and 8 Gy TBI both. The control group was similarly administered normal saline (0.1 ml, i.v.). On every alternate days, tumor-bearing thigh of each animal was shaved, and the longest (1) and shortest diameter (b) of the tumors along with height (h) were measured with the help of a vernier calliper. Tumor weight of each animal was calculated using the formula l*b*h/2.
HEK293, MRC5 and A549 cells were treated as indicated earlier. The cell pellet was resuspended in RIPA buffer and allowed to swell on ice for 30 min. Balb/c intestine tissue and tumor tissues were homogenized in RIPA buffer. Protein concentration was determined using Bradford's Assay (Bangalore Genei). […] Signals were detected using enhanced chemiluminescence (ECL system, Pierce) on X-ray film.

HEK293 cells [6] = assay: Annexin-V staining, control siRNA and Akt siRNA transfected cells; assay type: cell-based, human; conditions: for Apoptotic events: Akt knocked down HEK293, DMA+Radiation; for Total early and late apoptotic cells: control siRNA HEK293, DMA+Radiation
Experimental: HEK 293 cells were transfected with Akt siRNA and control-siRNA (Santa Cruz Biotechnology Inc.) according to the manufacturer's instructions. Semi-quantitative RT-PCR was performed with primers specific for Akt and ACTB in control siRNA and Akt siRNA treated HEK cells for analysing knockdown of Akt […] gene expression.
HEK293 cells (2×10^5 cells/plate) were transfected with control siRNA and siRNA-Akt, and DMA, Radiation and DMA+Radiation treatments were given as described earlier and samples were collected at 3, 6, 12, 18 and 24 h (data not shown for 12 and 18 h). Samples were prepared according to the manufacturer's instructions (BD Pharmingen™ Annexin V: FITC Apoptosis Detection Kit I, Catalog Number 556547, USA) and the samples were subjected to flow cytometry analysis (Becton Dickinson).

[7] = system: NFκB Δp65− A549 and scramble A549 cells; assay: Clonogenicity assay of NFκB p65 knockdown A549 cells; assay type: cell-based, human
Experimental: 0.8-1×10^6 A549 cells were seeded with media containing 8 μg/ml polybrene. Cells were infected with 0.5 ml lentivirus in fresh media containing polybrene and were incubated for next 24 h. Desired cells were selected against puromycin. NFκB p65 protein knockdown was checked by western blot after 3 days of selection media.
Exponentially growing scrambled and NFκB p65 knockdown A549 cells were treated with 50 μM DMA for 2 h and irradiated with 0, 2, 4, 6 and 8 Gy of radiation dose for clonogenic survival assay. % Radioprotection was calculated by following formula % of Protection in radiation treated cells=(SF(Δp65−)+DMA/SF(Δp65−))×100 where SF is survival fraction in respective conditions.

[8] = DMA+Radiation vs irradiated mice
[9] = DMA pre-treated to radiation group

COc1ccc(-c2nc3cc(-c4nc5cc(N6CCN(C)CC6)ccc5[nH]4)ccc3[nH]2)cc1OC [DMA, 5-(4-methylpiperazin-1-yl)-2-[2′-(3,4-dimethoxyphenyl)-5′-benzimidazolyl]benzimidazole]
DMF at 50% survival (A549 cells): 1.38 | DMF at 50% survival (HEK293 cells [1]): 1.44 | DMF at 50% survival (MRC5 cells): 1.1 | DMF at 50% survival (U87 cells): 1.067 and 1.07 | IL6 level in small intestine (IHC) ([2]; DMA only treated mice): almost equal to control mice | BrdU-positive cells (IHC) [2, 8]: more BrdU-positive cells | IL6 level in small intestine (IHC) [2, 8]: higher level of IL6 | Akt mRNA expression ([3]; DMA 50 mg/kg i.v. + 8Gy TBI vs control): higher expression | Bax, Bcl-2 and p21 mRNA expression level ([3]; DMA by itself): did not increase | Gadd45α mRNA expression ([3]; DMA by itself): significantly increased | Bax gene expression [3, 9]: no significant downregulation | Bcl-2 mRNA level [3, 9]: insignificant increase | p21 mRNA expression ([3]; DMA pretreatment 50 mg/kg i.v. to radiation vs radiation): significantly downregulated | Gadd45α mRNA expression ([3]; DMA pretreatment to radiation): augmented | Phosphorylated Akt, GSK3β and IKKα/β ([4]; DMA treated intestine tissue prior to irradiation): higher level | Kinase activity of Akt ([4]; DMA+Radiation vs control and radiation, intestine): higher kinase activity | NFκB p65 expression ([4]; DMA+Radiation, intestine): higher expression | Phosphorylated Akt level ([5]; DMA pretreated to irradiation of TBM vs other conditions): lower | Akt/NFκB signaling in response to radiation ([5]; tumor tissues of TBM, 50 mg/kg i.v. + 8Gy TBI): does not modulate | Apoptotic events (HEK293 cells [6]; 3 h): 23% | Apoptotic events (HEK293 cells [6]; 6 h): 21% | Apoptotic events (HEK293 cells [6]; 24 h): 22% | Total early and late apoptotic cells (HEK293 cells [6]; 3 h): 12% | Total early and late apoptotic cells (HEK293 cells [6]; 6 h): 9% | Total early and late apoptotic cells (HEK293 cells [6]; 24 h): 7% | DMF ([7]; NFκB Δp65− A549, 50 μM DMA 2 h): 1.02 | DMF ([7]; scrambled sequence transfected A549, 50 μM DMA 2 h): 1.28
